Data: patent US8735438B2, “Substituted-aryl-2-phenylethyl-1H-imidazole compounds as subtype selective modulators of alpha 2B and/or alpha 2C adrenergic receptors” (Allergan, Inc., priority 2008, dated 2014)
Where two headings read alike, the source gives them in different places.

Columns and labels:
Format in all cases: cell-based
alpha 2A receptor = target: T1, alpha 2A receptor (Homo sapiens, UniProt P08913); assay: RSAT (Receptor Selection and Amplification Technology) assay, alpha 2A; settings: NIH-3T3 cells cotransfected with receptor and Gq/i5; ratio of maximal effect to that of standard full agonist brimonidine (UK14304)
T1 construct: expressed in transfected cells; host or cells: NIH-3T3 cells
T1 sequence (P08913 1-465): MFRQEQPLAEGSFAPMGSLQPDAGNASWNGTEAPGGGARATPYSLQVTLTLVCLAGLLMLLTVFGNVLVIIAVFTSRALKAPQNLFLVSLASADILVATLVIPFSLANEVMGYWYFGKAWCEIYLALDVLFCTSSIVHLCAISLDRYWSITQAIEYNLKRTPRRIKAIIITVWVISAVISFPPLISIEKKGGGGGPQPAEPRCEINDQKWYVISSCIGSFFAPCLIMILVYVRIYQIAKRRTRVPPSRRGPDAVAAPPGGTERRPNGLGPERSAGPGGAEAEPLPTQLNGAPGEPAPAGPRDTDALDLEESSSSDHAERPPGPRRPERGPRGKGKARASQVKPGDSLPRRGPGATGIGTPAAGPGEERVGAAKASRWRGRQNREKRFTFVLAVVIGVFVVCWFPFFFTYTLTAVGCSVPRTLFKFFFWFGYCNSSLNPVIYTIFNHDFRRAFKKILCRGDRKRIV
Excerpt: The compounds disclosed herein are agonists of alpha 2B/2C adrenergic receptors. […] 76, pp. 308-311 (incorporated herein by reference) and is also described below. Another reference pertinent to this assay is Conklin et al. (1993) Nature 363: 274-6, also incorporated herein by reference.
(§1) The RSAT assay measures a receptor-mediated loss of contact inhibition that results in selective proliferation of receptor-containing cells in a mixed population of confluent cells. The increase in cell number is assessed with an appropriate transfected marker gene such as β-galactosidase, the activity of which can be easily measured in a 96-well format. Receptors that activate the G protein, Gq, elicit this response. Alpha 2 receptors, which normally couple to Gi, activate the RSAT response when coexpressed with a hybrid Gq protein that has a Gi receptor recognition domain, called Gq/i5.
(§2) NIH-3T3 cells are plated at a density of 2×10^6 cells in 15 cm dishes and maintained in Dulbecco's modified Eagle's medium supplemented with 10% calf serum. One day later, cells are cotransfected by calcium phosphate precipitation with mammalian expression plasmids encoding p-SV-β-galactosidase (5-10 μg), receptor (1-2 μg) and G protein (1-2 μg). 40 μg salmon sperm DNA may also be included in the transfection mixture. Fresh media is added on the following day and 1-2 days later, cells are harvested and frozen in 50 assay aliquots. Cells are thawed and 100 μl added to 100 μl aliquots of various concentrations of drugs in triplicate in 96-well dishes. Incubations continue 72-96 hr at 37° C. After washing with phosphate-buffered saline, .E-backward.-galactosidase enzyme activity is determined by adding 200 μl of the chromogenic substrate (consisting of 3.5 mM o-nitrophenyl-beta-D-galactopyranoside and 0.5% nonidet P-40 in phosphate buffered saline), incubating overnight at 30° C. and measuring optical density at 420 nm. The absorbance is a measure of enzyme activity, which depends on cell number and reflects a receptor-mediated cell proliferation. The efficacy or intrinsic activity is calculated as a ratio of the maximal effect of the drug to the maximal effect of a standard full agonist for each receptor subtype. Brimonidine, also called UK14304, the chemical structure of which is shown below, is used as the standard agonist for the alpha 2A, alpha 2B and alpha 2C receptors.

alpha 2B receptor = target: T2, alpha 2B receptor (Homo sapiens, UniProt P18089); assay: RSAT (Receptor Selection and Amplification Technology) assay, alpha 2B; settings: for Alpha 2B intrinsic activity (efficacy), value in parentheses: ratio of maximal effect to that of standard full agonist brimonidine (UK14304)
T2 construct: expressed in transfected cells; host or cells: NIH-3T3 cells
T2 sequence (P18089 1-450): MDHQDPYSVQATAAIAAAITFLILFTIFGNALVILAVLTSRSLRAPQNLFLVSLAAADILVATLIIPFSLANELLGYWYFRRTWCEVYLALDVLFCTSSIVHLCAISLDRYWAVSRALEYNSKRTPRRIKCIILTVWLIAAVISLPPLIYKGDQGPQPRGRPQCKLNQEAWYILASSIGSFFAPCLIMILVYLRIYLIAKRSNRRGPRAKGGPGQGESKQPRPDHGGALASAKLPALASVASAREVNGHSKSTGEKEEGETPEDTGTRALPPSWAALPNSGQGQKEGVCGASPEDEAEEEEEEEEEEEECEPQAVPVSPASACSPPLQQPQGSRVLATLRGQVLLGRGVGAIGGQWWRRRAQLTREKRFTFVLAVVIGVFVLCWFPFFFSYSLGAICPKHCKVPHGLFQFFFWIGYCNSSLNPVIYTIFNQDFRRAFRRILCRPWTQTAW
Experimental: as §1, §2

alpha 2C receptor = target: T3, alpha 2C receptor (Homo sapiens, UniProt P18825); assay: RSAT (Receptor Selection and Amplification Technology) assay, alpha 2C; settings: for Alpha 2C intrinsic activity (efficacy), value in parentheses: ratio of maximal effect to that of standard full agonist brimonidine (UK14304)
T3 construct: expressed in transfected cells; host or cells: NIH-3T3 cells
T3 sequence (P18825 1-462): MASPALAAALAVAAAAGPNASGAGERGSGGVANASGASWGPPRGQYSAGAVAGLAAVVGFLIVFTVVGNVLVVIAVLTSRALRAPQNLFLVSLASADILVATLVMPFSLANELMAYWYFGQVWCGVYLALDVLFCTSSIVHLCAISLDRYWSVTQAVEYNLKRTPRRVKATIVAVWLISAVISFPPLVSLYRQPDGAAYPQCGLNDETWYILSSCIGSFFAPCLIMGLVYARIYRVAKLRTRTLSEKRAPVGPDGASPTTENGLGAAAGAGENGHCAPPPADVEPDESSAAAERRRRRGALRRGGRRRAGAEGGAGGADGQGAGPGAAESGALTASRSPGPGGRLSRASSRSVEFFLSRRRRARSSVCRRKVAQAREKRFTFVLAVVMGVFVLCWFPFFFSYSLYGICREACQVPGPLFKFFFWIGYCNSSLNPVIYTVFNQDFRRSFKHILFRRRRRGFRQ
Experimental: as §1, §2

[1] = NIH-3T3 cells cotransfected with receptor and Gq/i5
[2] = NIH-3T3 cells cotransfected with receptor and Gq/i5, read-out: Alpha 2B potency nM (EC50)

## Cc1cccc(C(Cc2ccccc2)c2c[nH]cn2)c1C (stereo not shown)
Alpha 2A receptor
  Alpha 2A intrinsic activity (efficacy), value in parentheses: No Data (.28)
Alpha 2B receptor
  EC50: 2.09 nM
Alpha 2B receptor; [1]
  Alpha 2B intrinsic activity (efficacy), value in parentheses: 1.01
Alpha 2C receptor
  EC50: 26 nM
Alpha 2C receptor; [1]
  Alpha 2C intrinsic activity (efficacy), value in parentheses: .36

## Cc1ccccc1C(Cc1ccccc1)c1c[nH]cn1 (stereo not shown)
Alpha 2A receptor
  Alpha 2A intrinsic activity (efficacy), value in parentheses: No Data (.10)
Alpha 2B receptor; [1]
  Alpha 2B intrinsic activity (efficacy), value in parentheses: .69
Alpha 2B receptor; [2]
  EC50: 101 nM
Alpha 2C receptor; [1]
  Alpha 2C intrinsic activity (efficacy), value in parentheses: No Data (.21)

## Fc1cccc(C(Cc2ccccc2)c2c[nH]cn2)c1F (stereo not shown)
Alpha 2A receptor
  Alpha 2A intrinsic activity (efficacy), value in parentheses: No Data (.04)
Alpha 2B receptor; [1]
  Alpha 2B intrinsic activity (efficacy), value in parentheses: .53
Alpha 2B receptor; [2]
  EC50: 4.4 nM
Alpha 2C receptor; [1]
  Alpha 2C intrinsic activity (efficacy), value in parentheses: No Data (.17)

## Clc1cccc(/C(=C/c2ccccc2)c2c[nH]cn2)c1
Alpha 2A receptor
  Alpha 2A intrinsic activity (efficacy), value in parentheses: No Data (.09)
Alpha 2B receptor
  EC50: 7.8 nM
Alpha 2B receptor; [1]
  Alpha 2B intrinsic activity (efficacy), value in parentheses: .80
Alpha 2C receptor; [1]
  Alpha 2C intrinsic activity (efficacy), value in parentheses: No Data (.19)

## c1ccc(CC(c2ccccc2)c2c[nH]cn2)cc1 (stereo not shown)
Alpha 2A receptor
  Alpha 2A intrinsic activity (efficacy), value in parentheses: No Data (.05)
Alpha 2B receptor
  EC50: 2.8 nM
Alpha 2B receptor; [1]
  Alpha 2B intrinsic activity (efficacy), value in parentheses: .69
Alpha 2C receptor; [1]
  Alpha 2C intrinsic activity (efficacy), value in parentheses: No Data (.10)

## Clc1cccc(C(Cc2ccccc2)c2c[nH]cn2)c1Cl (stereo not shown)
Alpha 2A receptor
  Alpha 2A intrinsic activity (efficacy), value in parentheses: No Data (.21)
Alpha 2B receptor; [1]
  Alpha 2B intrinsic activity (efficacy), value in parentheses: .97
Alpha 2B receptor; [2]
  EC50: 8.4 nM
Alpha 2C receptor; [1]
  Alpha 2C intrinsic activity (efficacy), value in parentheses: .41
Alpha 2C receptor; NIH-3T3 cells cotransfected with receptor and Gq/i5, read-out: Alpha 2C potency nM (EC50)
  EC50: 41 nM

## Fc1ccccc1C(Cc1ccccc1)c1c[nH]cn1 (stereo not shown)
Alpha 2A receptor
  Alpha 2A intrinsic activity (efficacy), value in parentheses: No Data (.04)
Alpha 2B receptor
  EC50: 3.5 nM
Alpha 2B receptor; [1]
  Alpha 2B intrinsic activity (efficacy), value in parentheses: .43
Alpha 2C receptor; [1]
  Alpha 2C intrinsic activity (efficacy), value in parentheses: No Data (.18)

## c1ccc(CC(c2ccncc2)c2c[nH]cn2)cc1 (stereo not shown)
Alpha 2A receptor
  Alpha 2A intrinsic activity (efficacy), value in parentheses: No Data (.02)
Alpha 2B receptor
  EC50: 66 nM
Alpha 2B receptor; [1]
  Alpha 2B intrinsic activity (efficacy), value in parentheses: .74
Alpha 2C receptor; [1]
  Alpha 2C intrinsic activity (efficacy), value in parentheses: No Data (.09)
